Source: PubChem BioAssay (NCI)
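Cultured in 96-well plates, cells were exposed to test compound for 48 hours across five concentrations. GI50: concentration for 50% inhibition of growth. The concentration for full growth arrest is given as TGI.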

Key:
Test in all cases: inhibition of tumour cell growth, NCI panel, 48 h
[1] = test system: SK-MEL-5 melanoma
[2] = test system: M14 melanoma
[3] = test system: UO-31 renal
[4] = test system: HS 578T breast
[5] = test system: MALME-3M melanoma
[6] = test system: SF-295 CNS
[7] = test system: SK-MEL-2 melanoma
[8] = test system: HCC-2998 colon
[9] = test system: SR leukemia
[10] = test system: BT-549 breast

SMILES	GI50 [1] [µM]	TGI [1] [µM]	GI50 [2] [µM]	TGI [2] [µM]	GI50 [3] [µM]	TGI [3] [µM]	GI50 [4] [µM]	TGI [4] [µM]	GI50 [5] [µM]	TGI [5] [µM]	GI50 [6] [µM]	TGI [6] [µM]	GI50 [7] [µM]	TGI [7] [µM]	GI50 [8] [µM]	TGI [8] [µM]	TGI [9] [µM]	GI50 [10] [µM]	TGI [10] [µM]	GI50 [9] [µM]
Nc1nc(N)c2cc(S(=O)(=O)c3cccc(C(F)(F)F)c3)ccc2n1	2.98	> 100	2	> 100	4.96	> 100	4.55	49.7	5.74	> 100	2.57	97.5	11	73.2	5.03	> 100	–	–	–	–
O=C1CN=C(c2ccccc2)c2ccncc2N1	–	> 100	–	> 100	–	> 100	–	–	–	> 100	–	> 100	–	> 100	–	> 100	> 100	–	–	–
Clc1ccc2c(NC3CCC(NC4CCCCC4)CC3)ccnc2c1 (stereo unspecified)	1.77	3.2	1.72	3.19	3.42	16	–	–	2.43	5.1	1.92	5.19	1.97	3.95	2.49	8.13	–	12.3	25.1	–
CN(N=O)C(=O)NC(CCCCNC(=O)OCc1ccccc1)C(=O)OCc1ccccc1 (stereo unspecified)	–	45.4	–	36.9	–	38.3	–	–	–	89.6	–	> 100	–	85.5	–	> 100	58.4	–	–	–
CCOP(=O)(OCC)C(C(=O)OC)C(=O)C(=O)Nc1cccc([N+](=O)[O-])c1 (stereo unspecified)	–	> 100	–	> 100	–	> 100	–	–	–	> 100	–	> 100	–	> 100	–	> 100	> 100	–	–	–
CC(C)(Sc1cc(C(C)(C)C)c(O)c(C(C)(C)C)c1)Sc1cc(C(C)(C)C)c(O)c(C(C)(C)C)c1	–	> 100	–	> 100	–	> 100	–	> 100	–	> 100	–	> 100	–	> 100	–	–	–	–	> 100	–
COc1ccc(C(O)C(c2ccc(OCc3ccccc3)cc2)c2ccc(OCc3ccccc3)cc2)cc1 (stereo unspecified)	–	> 100	–	> 100	–	> 100	–	–	–	> 100	–	> 100	–	> 100	–	> 100	> 100	–	–	–
O=S(=O)(c1ccccc1)N1CCC1c1ccccc1 (stereo unspecified)	–	> 100	–	> 100	–	> 100	–	–	–	> 100	–	> 100	–	> 100	–	> 100	–	–	–	–
Cc1cc(C)c2c(c1)CSCc1cc(C)cc(C)c1-2	–	65	–	91.8	–	> 100	–	–	–	56.8	–	68.3	–	43.9	–	> 100	47.4	–	–	–
OC(c1ccccc1)c1c(-c2ccccc2)[nH]c(-c2ccccc2)c1C(O)c1ccccc1 (stereo unspecified)	–	5.27	–	11.8	–	5.78	–	18.9	–	7.17	–	38.6	–	5.18	–	22.4	8.25	–	–	–
O=[N+]([O-])c1ccc(Cl)c(C2CC(c3cccc4ccccc34)=Nc3ccccc3S2=O)c1 (stereo unspecified)	–	40	–	59.7	–	> 46.7	–	–	–	42.5	–	61	–	37.4	–	> 50.3	93.1	–	–	–
CCOc1ccc2c(c1)[n+]([O-])c(C(N)=O)c(N)[n+]2[O-]	–	> 100	–	> 100	–	> 100	–	–	–	> 100	–	> 100	–	> 100	–	–	> 100	–	–	–
[Cu].c1ccc2c(c1)C1=NC2=NC2=NC(=NC3=NC(=NC4=NC(=N1)c1ccccc14)c1ccccc13)c1ccccc12	> 100	> 100	> 100	> 100	> 100	> 100	> 100	> 100	> 100	> 100	> 100	> 100	> 100	> 100	> 100	> 100	–	> 100	> 100	–
O=C(O)c1ccccc1NS(=O)(=O)c1ccc(Cl)cc1	–	> 100	–	> 100	–	> 100	–	–	–	> 100	–	–	–	> 100	–	> 100	–	–	–	–
CC1COS(=O)N1c1ccccc1 (stereo unspecified)	–	> 100	–	> 100	–	> 100	–	–	–	> 100	–	> 100	–	> 100	–	> 100	–	–	–	–
Clc1ccc(NCNC2Nc3ccccc3N2)cc1Cl	–	54.6	–	> 100	–	> 100	–	> 100	–	> 100	–	> 100	–	79.6	–	> 100	> 100	–	–	–
NCCNCCNCc1c2ccccc2c(CNCCNCCN)c2ccccc12	–	> 100	–	> 100	–	> 100	–	–	–	> 100	–	> 100	–	> 100	–	> 100	> 100	–	–	–

SMILES	GI50 [1] [µM]	TGI [1] [µM]	GI50 [2] [µM]	TGI [2] [µM]	GI50 [3] [µM]	TGI [3] [µM]	GI50 [4] [µM]	TGI [4] [µM]	GI50 [5] [µM]	TGI [5] [µM]	GI50 [6] [µM]	TGI [6] [µM]	GI50 [7] [µM]	TGI [7] [µM]	GI50 [8] [µM]	TGI [8] [µM]	TGI [9] [µM]	GI50 [10] [µM]	TGI [10] [µM]	GI50 [9] [µM]
O=C(c1ccccc1)[C@H]1Nc2ccc(Cl)cc2[C@H]2c3ccccc3O[C@H]21	–	27.5	–	30.1	–	18.2	–	–	–	31.7	–	28.9	–	27.3	–	31.5	66.6	–	–	–
[O-]c1ccccc1C=NCCN=Cc1ccccc1[O-].[O]=[U+2]=[O]	41.7	> 81.8	40.9	> 85.8	29.8	> 60.6	–	–	39.7	> 63.5	28.7	> 72.3	22	> 62.7	27.9	83.6	> 100	–	–	51.1
CS(=O)(=O)N(CCC#N)c1ccc(/C=C2\N=C(c3ccccc3Cl)OC2=O)cc1	–	> 100	–	> 100	–	> 100	–	–	–	> 100	–	> 100	–	> 100	–	> 100	–	–	–	–
CC[O-].CC[O-].[O-]c1ccccc1C=NC12CC3CC(CC(C3)C1)C2.[O-]c1ccccc1C=NC12CC3CC(CC(C3)C1)C2.[Ti+4]	19.9	> 100	> 100	> 100	92.3	> 100	–	–	64.2	> 100	> 100	> 100	35.8	> 100	> 100	> 100	> 100	–	–	29.2
CC(C)CC(NC(=O)C(O)C(N)Cc1ccccc1)C(=O)O (stereo unspecified)	–	> 100	–	> 100	–	> 100	–	> 100	–	> 100	–	> 100	–	> 100	–	> 100	> 100	–	–	–
Cc1cccc(-c2nc(=S)[nH][nH]2)c1	–	> 100	–	> 100	–	> 100	–	–	–	> 100	–	> 100	–	> 100	–	> 100	> 100	–	–	–
O=C1c2ccccc2C(=O)N1C/C=N/NS(=O)(=O)c1cccc([N+](=O)[O-])c1	–	> 100	–	> 100	–	> 100	–	–	–	> 100	–	> 100	–	> 100	–	> 100	> 100	–	–	–
O=C1/C(=C/c2cc(O)c(O)c(O)c2)Oc2cc(O)cc(OC3OC(CO)C(O)C(O)C3O)c21 (stereo unspecified)	–	31	–	50.4	–	> 100	–	–	–	–	–	34.3	–	47.7	–	> 100	–	–	–	–
CC1=NC2(C(=O)O)C3(C(=O)O)N=C(C)OC3(C(F)(F)F)C2(C(F)(F)F)O1 (stereo unspecified)	–	–	–	> 100	–	> 100	–	–	–	> 100	–	> 100	–	> 100	–	> 100	> 100	–	–	–
[N-]=[N+]=NC1C(Cl)C(=O)NC(=O)N1[C@H]1C[C@H](O)[C@@H](CO)O1 (stereo partly specified)	12.3	> 100	–	> 100	–	> 100	–	–	–	> 100	–	> 100	–	> 100	–	> 100	–	–	–	–
CC(C)N1CCOC(c2ccc(O)c(O)c2)C1 (stereo unspecified)	–	> 100	–	> 100	–	> 100	–	–	–	> 100	–	> 100	–	> 100	–	> 100	–	–	–	–
CCCCCCCCCCCC(c1ccccc1)[N+](C)(C)C (stereo unspecified)	0.874	2.11	1.37	4.25	10.7	26.9	1.16	3.28	1.29	2.91	2.32	8.9	1.51	3.06	–	–	–	1.31	2.95	–
COc1ccc(-c2cc(=O)c3c(C)ccnc3[nH]2)cc1	3.87	14.7	–	> 100	–	> 100	–	77.1	–	65.2	19.5	> 100	–	28.1	–	> 100	–	–	67.3	–
CSC(=Nc1ccc([N+](=O)[O-])cc1C#N)NC(=O)c1ccccc1	–	> 100	–	> 100	–	–	–	–	–	> 100	–	> 100	–	–	–	> 100	> 100	–	–	–
O=C1C2C3SC(c4cc5ccccc5cc43)C2C(=O)N1c1ccccc1 (stereo unspecified)	–	> 100	–	> 100	–	> 100	–	–	–	> 100	–	> 100	–	> 100	–	> 100	–	–	–	–
O=S1(=O)[C@H](c2ccccc2)c2c(-c3ccccc3)sc(-c3ccccc3)c2[C@@H]1c1ccccc1	–	> 100	–	> 100	–	> 100	–	–	–	> 100	–	> 100	–	> 100	–	> 100	–	–	–	–
